From patent US7902148B2, “Use of an echinocandin antifungal agent in combination with a glycopeptide antibacterial agent” (Theravance, Inc., priority 2003, dated 2011)

How the values were obtained:
C. albicans ATCC 24433 = assay: Checkerboard MIC assay for FICI; assay type: cell-based, Candida albicans
Excerpt: (§1) The following assay was used to determine the minimum inhibitory concentration (MIC) and fractional inhibitory concentration index (FICI) for combinations of antifungal agents and antibacterial agents. This assay and methods for calculating FICI are well known in the art. See, for example, Eliopoulos, E. G. and R. Moellering, Jr. “Antimicrobial Combinations” in Antibiotics in Laboratory Medicine, edited by V. Lorian, 4th Ed., Williams & Wilkins, Baltimore, Md., pp. 330-396 (1996); Shalit et al., Antimicrobial Agents and Chemotherapy 47(4):1416-1418 (2003); or Afeltra et al., Antimicrobial Agents and Chemotherapy 46(10):3323-3326 (2002).
(§2) Using a checkerboard method, a 2-fold dilution 100× final concentration master plate was prepared using a 96-well U-shape microtiter plate and an appropriate solvent. In the “checkerboard” method, a microtiter plate is divided into “columns” in which each well in the column contains the same amount of an antifungal agent (Compound A) being diluted along the x-axis, and “rows” in which each well in the row contains the same amount of a glycopeptide antibacterial agent (Compound B) being diluted on the γ-axis. Also included is a row (or column) for Compound A or B alone. The dilutions used in the checkerboard are exponential (by powers of two). The result is that each well in the microtiter plate contains a unique concentration of the two compounds being tested.
(§3) A matrix 2× final concentration was performed by transferring 30 μL of 100× Compound A and Compound B into a 1,440 μL RPMI in deep wells (one deep well per drug combination). After mixing, 100 μL of 2× drug combinations were distributed into 96-well microtiter plates. Compound A was diluted from Column 1 starting at 1,600 μg/mL to Column 11 (1.6 μg/mL). Wells in Column 1 contained a final concentration (after inoculum was added) of 16 μg/mL of Compound A; wells in Column 2 contained a final concentration of 8 μg/mL of Compound A; wells in Column 3 contained a final concentration of 4 μg/mL of Compound A; etc. Compound A was not added to Column 12, so Column 12 contained only Compound B.
(§4) Compound B was diluted from row A starting at 6,400 μg/mL down to row G (100 μg/mL). Wells in Row A contained a final concentration of 64 μg/mL of Compound B; Row B contained a final concentration of 32 μg/mL of Compound B; Row C contained a final concentration of 16 μg/mL of Compound B; etc. Compound B was not added to Row H, so Row H only contained Compound A.
(§5) In most cases, MIC of the glycopeptide antibacterial compound alone was >64 μg/mL. In order to get an accurate measurement, a standard MIC assay using NCCLS protocols was performed with an extended concentration range of from 256 μg/mL to 0.25 μg/mL. […]

[1] = tested on: C. parapsilosis ATCC 22019; assay: Checkerboard MIC assay for FICI; assay type: cell-based, Candida parapsilosis
Excerpt: as §1, §2, §3, §4, §5

C. tropicalis ATCC 750 = assay: Checkerboard MIC assay for FICI; assay type: cell-based, Candida tropicalis
Excerpt: as §1, §2, §3, §4, §5

C. krusei ATCC 32672 = assay: Checkerboard MIC assay for FICI; assay type: cell-based, Candida krusei
Excerpt: as §1, §2, §3, §4, §5

C. glabrata ATCC 200918 = assay: Checkerboard MIC assay for FICI; assay type: cell-based, Candida glabrata
Excerpt: as §1, §2, §3, §4, §5

C. neoformans ATCC 56991 = assay: Checkerboard MIC assay for FICI; assay type: cell-based, Cryptococcus neoformans
Excerpt: as §1
(§6) Using a checkerboard method, a 2-fold dilution 100× final concentration master plate was prepared using a 96-well U-shape microtiter plate and an appropriate solvent. In the “checkerboard” method, a microtiter plate is divided into “columns” in which each well in the column contains the same amount of an antifungal agent (Compound A) being diluted along the x-axis, and “rows” in which each well in the row contains the same amount of a glycopeptide antibacterial agent (Compound B) being diluted on the γ-axis. Also included is a row (or column) for Compound A or B alone. The dilutions used in the checkerboard are exponential (by powers of two). […]

A. fumigatus ATCC 14110 = assay: Checkerboard MIC assay for FICI; assay type: cell-based, Aspergillus fumigatus; settings: combination with caspofungin
Excerpt: as §1, §6

A. terreus ATCC 46941 = assay: Checkerboard MIC assay for FICI; assay type: cell-based; settings: combination with caspofungin
Excerpt: as §1, §6

[2] = tested on: S. prolificans ATCC 200543; assay: Checkerboard MIC assay for FICI; assay type: cell-based; settings: combination with caspofungin
Excerpt: as §1, §6

A. flavus ATCC 64025 = assay: Checkerboard MIC assay for FICI; assay type: cell-based, Aspergillus flavus; settings: combination with caspofungin
Excerpt: as §1, §6

[3] = tested on: F. moniliforme ATCC 38159; assay: Checkerboard MIC assay for FICI; assay type: cell-based, Fusarium moniliforme; settings: combination with caspofungin
Excerpt: as §1, §6

P. boydii ATCC 38283 = assay: Checkerboard MIC assay for FICI; assay type: cell-based, Pseudallescheria boydii; settings: combination with caspofungin
Excerpt: as §1, §6

G. candidum ATCC 62231 = assay: Checkerboard MIC assay for FICI; assay type: cell-based, Geotricium candidum; settings: combination with caspofungin
Excerpt: as §1, §6

[4] = tested on: M. circinelloides ATCC 26759; assay: Checkerboard MIC assay for FICI; assay type: cell-based, Mucor circinelloides; settings: combination with caspofungin
Excerpt: as §1, §6

[5] = tested on: R. miscrosporus ATCC 14050; assay: Checkerboard MIC assay for FICI; assay type: cell-based, Rhizopus microsporus; settings: combination with caspofungin
Excerpt: as §1, §6

various strains of fungi = assay: Assay for determining MIC and FICI, summary statements over strains; assay type: cell-based
Excerpt: as §1
FICI values are typically evaluated using the following criteria:
Using a checkerboard method, a 2-fold dilution 100× final concentration master plate was prepared using a 96-well U-shape microtiter plate and an appropriate solvent. In the “checkerboard” method, a microtiter plate is divided into “columns” in which each well in the column contains the same amount of an antifungal agent (Compound A) being diluted along the x-axis, and “rows” in which each well in the row contains the same amount of a glycopeptide antibacterial agent (Compound B) being diluted on the γ-axis. […]
The calculated value for the FICI of the combined test compounds was compared to the following standards in certain embodiments: […]

Row | SMILES | FICI (C. albicans ATCC 24433; combination with Compound 1) | FICI ([1]; combination with Compound 1) | FICI (C. tropicalis ATCC 750; combination with Compound 1) | FICI (C. krusei ATCC 32672; combination with Compound 1) | FICI (C. glabrata ATCC 200918; combination with Compound 1) | FICI (C. albicans ATCC 24433; combination with caspofungin) | FICI ([1]; combination with caspofungin) | FICI (C. tropicalis ATCC 750; combination with caspofungin) | FICI (C. krusei ATCC 32672; combination with caspofungin) | FICI (C. glabrata ATCC 200918; combination with caspofungin) | also measured
1 | OC(Cn1cncn1)(Cn1cncn1)c1ccc(F)cc1F [Fluconazole] | 2.00 | 2.00 | 2.00 | 2.00 | 2.00 |  |  |  |  |  | 
2 | CC[C@H](C)C[C@H](C)CCCCCCCCC(=O)N[C@H]1C[C@@H](O)[C@@H](NCCN)NC(=O)[C@@H]2[C@@H](O)CCN2C(=O)[C@H]([C@H](O)CCN)NC(=O)[C@H]([C@H](O)[C@@H](O)c2ccc(O)cc2)NC(=O)[C@@H]2C[C@@H](O)CN2C(=O)[C@H]([C@@H](C)O)NC1=O [caspofungin] |  |  |  |  |  |  |  |  |  |  | activity of caspofungin against C. neoformans (C. neoformans ATCC 56991; caspofungin alone): no activity
3 | CCCCCCCCCCNCCN[C@@]1(C)C[C@H](O[C@H]2[C@H](Oc3c4cc5cc3Oc3ccc(cc3Cl)[C@@H](O)[C@@H](NC(=O)[C@@H](CC(C)C)NC)C(=O)N[C@@H](CC(N)=O)C(=O)N[C@H]5C(=O)N[C@H]3C(=O)N[C@H](C(=O)N[C@H](C(=O)O)c5cc(O)c(CNCP(=O)(O)O)c(O)c5-c5cc3ccc5O)[C@H](O)c3ccc(c(Cl)c3)O4)O[C@H](CO)[C@@H](O)[C@@H]2O)O[C@@H](C)[C@H]1O [Compound 1, telavancin] |  |  |  |  |  | 0.27 | 0.38 | 0.26 | 0.31 | 0.28 | FICI (C. neoformans ATCC 56991; combination with caspofungin, C. neoformans ATCC 56991, checkerboard): 0.75; FICI (A. fumigatus ATCC 14110): 0.28; FICI (A. terreus ATCC 46941): 0.31; FICI [2]: 1.25; FICI (A. flavus ATCC 64025): 0.16; FICI [3]: 2; FICI (P. boydii ATCC 38283): 0.31; FICI (G. candidum ATCC 62231): 0.31; FICI [4]: 2; FICI [5]: 2; effect of the combination with caspofungin (various strains of fungi; all yeast strains tested, except C. neoformans, FICI ≦ 0.5 = synergistic): synergistic
4 | C[C@@H](c1ncncc1F)[C@](O)(Cn1cncn1)c1ccc(F)cc1F [Voriconazole, voriconazole] |  |  |  | 1.13 | 1.13 |  |  |  |  |  | 
5 | Clc1ccc(COC(Cn2ccnc2)c2ccc(Cl)cc2Cl)c(Cl)c1 (stereo not drawn) [Miconazole] | 2.00 | 2.00 | 2.00 |  |  |  |  |  |  |  | 
6 | CN[C@H](CC(C)C)C(=O)N[C@H]1C(=O)N[C@@H](CC(N)=O)C(=O)N[C@H]2C(=O)N[C@H]3C(=O)N[C@H](C(=O)N[C@H](C(=O)O)c4cc(O)cc(O)c4-c4cc3ccc4O)[C@H](O)c3ccc(c(Cl)c3)Oc3cc2cc(c3O[C@@H]2O[C@H](CO)[C@@H](O)[C@H](O)[C@H]2O[C@H]2C[C@](C)(N)[C@H](O)[C@H](C)O2)Oc2ccc(cc2Cl)[C@H]1O [Vancomycin] |  |  |  |  |  | 2.00 | 2.00 | 2.00 | 2.00 | 2.00 | effect of the combination with caspofungin (various strains of fungi; strains of Table 1, FICI criteria of b187): not synergistic or additive
